Laboratory results taken from EP0191520A1, “(1-phenylmethyl-5-hydroxy-1H-indazol-3-yl)-oxyacetic acid and salts thereof for use as a medicament, and pharmaceutical compositions containing them” (AZIENDE CHIMICHE RIUNITE ANGELINI FRANCESCO A.C.R.A.F. …, priority 1985, dated 1986).
Read-outs that look alike come from different tables or passages of the source. Each block holds one compound with its values, some of them ahead of it.

Assays:
[1] = tested on: bilateral senile cataract; experiment: preliminary tests on man: cataract therapy for three months, oral or topical; format: in vivo; details: 10 patients
Method: Preliminary tests on man confirmed the action of Compound II in cataract therapy.
Two groups of 10 patients afflicted by bilateral senile cataract with cortical or subcapsular or cortinuclear localization, in the initial evolutive stage, without fundus alterations and with a distant visus from 5 to 9 tenths (after correction of any refraction error) were treated for three months with Compound II orally (100 mg tablet; 1 tablet, three times a day) and topically (0.1% collyrium; 1 drop in the conjunctival sac of each eye three times a day) respectively.
The effect of the treatment was evaluated by monitoring the variations in the visus, in the refraction error, and in lenticular opacity (by biomicroscopy with a slit lamp and by ophthalmoscopy).

albumin of beef serum = molecular target: T1, albumin of beef serum (Bos taurus, UniProt P02769); experiment: protective effect on protein denaturation from UV rays (method of Silvestrini et al.); format: biochemical; details: for inhibition at 50 µM: molar conc. .00005; for inhibition at 200 µM: molar conc. .0002
T1 construct: albumin of beef serum; from tissue; host or cells: beef serum
Method: The Compounds of formulas I and II were tested under experimental conditions designed to show the protective effect on protein denaturation from UV rays according to the method of Silvestrini et al. (Int. J. Tiss. Reac. 5, 217-225, 1983) which comprises the measurement of the protective action of the compound under examination on the denaturation of the albumin of beef serum submitted to UV rays for 30 minutes.

[2] = orally, 100 mg tablet three times a day
[3] = topically, 0.1% collyrium, 1 drop in each eye three times a day
[4] = UV rays for 30 minutes, read-out: % INHIBITION MEAN
[5] = single determinations, UV rays for 30 minutes, read-out: % INHIBITION

T1 sequence (P02769 25-607): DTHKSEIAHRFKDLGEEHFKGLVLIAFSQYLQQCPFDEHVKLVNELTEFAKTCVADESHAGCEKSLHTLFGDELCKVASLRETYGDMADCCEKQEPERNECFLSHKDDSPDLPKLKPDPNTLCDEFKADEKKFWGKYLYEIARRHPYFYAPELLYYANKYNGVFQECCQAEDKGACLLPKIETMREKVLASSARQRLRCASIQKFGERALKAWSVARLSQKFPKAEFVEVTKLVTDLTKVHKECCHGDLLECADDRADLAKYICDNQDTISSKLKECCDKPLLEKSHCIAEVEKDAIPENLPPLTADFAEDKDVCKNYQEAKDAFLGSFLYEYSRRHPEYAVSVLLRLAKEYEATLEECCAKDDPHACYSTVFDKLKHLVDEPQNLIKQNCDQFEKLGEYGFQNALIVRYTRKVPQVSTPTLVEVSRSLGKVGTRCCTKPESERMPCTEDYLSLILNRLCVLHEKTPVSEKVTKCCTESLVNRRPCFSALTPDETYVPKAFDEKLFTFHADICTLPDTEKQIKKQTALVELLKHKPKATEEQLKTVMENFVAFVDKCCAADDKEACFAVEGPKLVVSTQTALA

inhibition at 50 µM (albumin of beef serum; [4]): 10% | inhibition at 50 µM (albumin of beef serum; [5]): 8 to 13% | inhibition at 100 µM (albumin of beef serum; molar conc. .0001, UV rays for 30 minutes): 77% | inhibition at 200 µM (albumin of beef serum; [4]): 92% | inhibition at 200 µM (albumin of beef serum; [5]): 85 to 100% | times as active as Compound I (albumin of beef serum; relative activity versus Compound I in this test): at least 10 times
Structure (SMILES): O=C(O)COc1nn(Cc2ccccc2)c2ccc(O)cc12 [Compound II, (5-hydroxy-1-benzyl)-indazolyl-3-oxyacetic acid]
opacity decreased [1, 2]: 6 eyes | opacity increased [1, 2]: 1 eye | opacity remained unchanged [1, 2]: 13 eyes | overall clinical judgement: patients improved [1, 2]: 7 patients | overall clinical judgement: remained unchanged [1, 2]: 2 patients | overall clinical judgement: worsened slightly [1, 2]: one | overall clinical judgement: patients improved greatly ([1]; orally, 100 mg tablet three times a day, part of the 7 improved): 4 patients | mean visus value increased ([1]; orally, 100 mg tablet three times a day, t = 3.58, P < 0.01): 16.79% | opacity decreased [1, 3]: 7 eyes | opacity increased [1, 3]: 2 eyes | opacity remained unchanged [1, 3]: 11 eyes | overall clinical judgement: patients improved [1, 3]: 4 patients | overall clinical judgement: remained unchanged [1, 3]: 5 patients | overall clinical judgement: worsened [1, 3]: one | mean visus value increased ([1]; topically, 0.1% collyrium, 1 drop in each eye three times a day, t = 2.54, P < 0.05): 12.78%

inhibition at 250 µM (albumin of beef serum; molar conc. .00025, UV rays for 30 minutes): 12% | inhibition at 500 µM (albumin of beef serum; molar conc. .0005, UV rays for 30 minutes): 21% | inhibition at 1000 µM (albumin of beef serum; molar conc. .001, UV rays for 30 minutes): 42% | inhibition at 2000 µM (albumin of beef serum; molar conc. .002, UV rays for 30 minutes): 61%
Structure (SMILES): O=C(O)COc1nn(Cc2ccccc2)c2ccccc12 [Compound I, bendazac lysinate, reference compound]
